From patent US20220315594A1, “METHOD OF SYNTHESIS OF COMPOUND FOR DUAL INHIBITION OF JAK2 AND BET” (OHM ONCOLOGY, priority 2019, published 2022)

Columns and labels:
Settings in all cases: qualitative statement
[1] = target: BRD4 BD1 (Homo sapiens, UniProt O60885); assay: In vitro biochemical assay, BRD4 BD1 inhibition
[2] = system: multiple liquid cancer cell lines; assay: Anti-proliferative activity against liquid cancer cell lines; format: cell-based
[3] = system: cMYC expression; assay: cMYC expression down-regulation; format: cell-based
[4] = target: JAK2 (Homo sapiens, UniProt O60674); assay: In vitro biochemical assay, JAK2 inhibition
Sequence of JAK2 (O60674 whole entry): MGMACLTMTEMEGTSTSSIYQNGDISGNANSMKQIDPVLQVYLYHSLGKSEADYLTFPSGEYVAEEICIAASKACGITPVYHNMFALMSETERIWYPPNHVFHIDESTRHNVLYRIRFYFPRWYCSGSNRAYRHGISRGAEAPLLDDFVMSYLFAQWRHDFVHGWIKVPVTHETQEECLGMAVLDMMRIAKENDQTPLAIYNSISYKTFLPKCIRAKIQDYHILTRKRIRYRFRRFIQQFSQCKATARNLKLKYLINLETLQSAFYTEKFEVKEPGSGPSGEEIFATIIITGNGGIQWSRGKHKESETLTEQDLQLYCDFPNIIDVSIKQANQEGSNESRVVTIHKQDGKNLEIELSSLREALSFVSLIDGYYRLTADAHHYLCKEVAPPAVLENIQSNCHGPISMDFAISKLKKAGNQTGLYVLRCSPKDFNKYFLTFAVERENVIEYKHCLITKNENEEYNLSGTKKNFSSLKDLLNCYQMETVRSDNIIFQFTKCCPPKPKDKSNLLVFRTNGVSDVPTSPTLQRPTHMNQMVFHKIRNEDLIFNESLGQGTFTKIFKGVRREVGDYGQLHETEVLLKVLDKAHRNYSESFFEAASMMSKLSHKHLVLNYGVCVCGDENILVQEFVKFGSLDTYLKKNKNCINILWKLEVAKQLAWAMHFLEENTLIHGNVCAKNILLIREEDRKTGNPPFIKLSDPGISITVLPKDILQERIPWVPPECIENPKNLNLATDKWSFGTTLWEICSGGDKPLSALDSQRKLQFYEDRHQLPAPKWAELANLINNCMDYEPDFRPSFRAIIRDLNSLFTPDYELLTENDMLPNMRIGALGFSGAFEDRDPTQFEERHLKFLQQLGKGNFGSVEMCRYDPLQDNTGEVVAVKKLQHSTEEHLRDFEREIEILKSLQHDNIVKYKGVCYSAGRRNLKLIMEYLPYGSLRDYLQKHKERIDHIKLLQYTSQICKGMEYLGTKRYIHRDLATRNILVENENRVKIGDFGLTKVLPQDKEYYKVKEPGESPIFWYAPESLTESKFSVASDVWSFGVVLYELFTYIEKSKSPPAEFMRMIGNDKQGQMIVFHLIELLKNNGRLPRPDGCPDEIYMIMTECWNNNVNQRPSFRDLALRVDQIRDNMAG

[5] = target: BRD4 BD2 (Homo sapiens, UniProt O60885); assay: In vitro biochemical assay, BRD4 BD2 inhibition
[6] = system: JAK2 signaling; assay: JAK2 signaling down-regulation; format: cell-based

SMILES: CN(C)C1CCN(c2ccc(Nc3ncc4ccn(-c5cccc(NS(=O)(=O)C(C)(C)C)c5)c4n3)cc2F)CC1 [OHM-581, N-(3-(2-((4-(4-(dimethylamino)piperidin-1-yl)-3-fluorophenyl)amino)-7H-pyrrolo[2,3-d]pyrimidin-7-yl)phenyl)-2-methylpropane-2-sulfonamide]
- inhibition of BRD4 BD1 [1]: inhibit
- anti-proliferative activity [2]: significant anti-proliferative activity
- cMYC expression [3]: robustly down-regulates
- inhibition of JAK2 [4]: inhibit
- inhibition of BRD4 BD2 [5]: inhibit
- JAK2 signaling [6]: robustly down-regulates
